Results as given in patent publication US8003783B2, “17B-hydroxysteroid dehydrogenase inhibitors” (Sterix Limited, priority 2004, dated 2011).
Read-outs that look alike come from different tables or passages of the source.

What was measured:
17β-HSD2 = target: T1, 17β-HSD2 (Homo sapiens, UniProt P37059); assay: 17β-HSD Type II activity in MDA-MB-231 cells (E2→E1); assay type: cell-based
T1 construct: was measured in intact cell monolayers of T47D and MDA-MB-231 breast cancer cells respectively; endogenous in cells; host or cells: MDA-MB-231 human breast cancer cells
T1 sequence (P37059 1-387): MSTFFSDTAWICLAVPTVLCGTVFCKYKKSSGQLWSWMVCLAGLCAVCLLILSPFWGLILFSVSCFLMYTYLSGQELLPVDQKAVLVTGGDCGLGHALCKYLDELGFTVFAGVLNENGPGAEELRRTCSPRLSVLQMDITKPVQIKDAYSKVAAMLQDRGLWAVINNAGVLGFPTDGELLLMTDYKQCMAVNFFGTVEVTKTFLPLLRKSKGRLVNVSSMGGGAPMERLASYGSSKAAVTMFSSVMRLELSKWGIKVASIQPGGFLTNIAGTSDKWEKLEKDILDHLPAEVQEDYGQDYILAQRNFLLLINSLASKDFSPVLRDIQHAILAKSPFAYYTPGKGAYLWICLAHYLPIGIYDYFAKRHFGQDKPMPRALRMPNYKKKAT

17β-HSD1 = target: T2, 17β-HSD1 (Homo sapiens, UniProt P14061); assay: 17β-HSD Type I activity in T-47D cells (E1→E2); assay type: cell-based; conditions: for inhibition at 10 µM: T47D
T2 construct: was measured in intact cell monolayers of T47D and MDA-MB-231 breast cancer cells respectively; endogenous in cells; host or cells: T-47D human breast cancer cells
T2 sequence (P14061 1-328): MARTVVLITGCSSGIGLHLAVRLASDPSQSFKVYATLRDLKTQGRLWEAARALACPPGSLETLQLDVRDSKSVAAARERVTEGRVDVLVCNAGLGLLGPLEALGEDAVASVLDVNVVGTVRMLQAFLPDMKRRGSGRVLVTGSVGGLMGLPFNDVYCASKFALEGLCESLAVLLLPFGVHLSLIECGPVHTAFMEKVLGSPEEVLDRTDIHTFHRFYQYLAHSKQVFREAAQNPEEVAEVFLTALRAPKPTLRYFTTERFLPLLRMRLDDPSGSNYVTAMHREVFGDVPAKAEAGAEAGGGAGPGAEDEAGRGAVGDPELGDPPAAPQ

[1] = 10 μM, MDA-MB-231 cells, E2→E1, read-out: % inhibition of 17β-HSD2 @ 10 μM
[2] = 10 μM, T-47D cells, E1→E2, read-out: % inhibition of 17β-HSD1 @ 10 μM
[3] = T-47D cells, E1→E2, read-out: IC50 (17β-HSD1)
[4] = MDA-MB-231, read-out: % inhibition of 17β-HSD2 @ 10 μM
[5] = read-out: % inhibition of 17β-HSD1 @ 10 μM, 10 μM, T-47D cells, E1→E2

| Compound | inhibition at 10 µM (17β-HSD2; [1]) | inhibition at 10 µM (17β-HSD1; [2]) | IC50 (17β-HSD1; [3]) | IC50 (17β-HSD1) | inhibition at 10 µM (17β-HSD2; [4]) | inhibition at 10 µM (17β-HSD1; [5]) |
| --- | --- | --- | --- | --- | --- | --- |
| C[C@]12CCC3c4ccc(O)cc4CCC3C1CC(C(=O)O)C2=O (stereo partly shown) [compound 610] | 1% | 95% | 0.94 µM | – | – | – |
| C[C@]12CCC3c4ccc(O)cc4CCC3C1CC(C(=O)O)[C@@H]2O (stereo partly shown) [compound 611] | 4% | 39% | – | – | – | – |
| C[C@]12CCC3c4ccc(O)cc4CCC3C1CC(CO)[C@@H]2O (stereo partly shown) [compound 612] | 17% | 86% | – | – | – | – |
| CC(C)/C=C1\CC2C3CCc4cc(O)ccc4C3CC[C@]2(C)[C@H]1O (stereo partly shown) [compound 614] | 7% | 68% | – | – | – | – |
| C[C@]12CCC3c4ccc(O)cc4CCC3C1Cc1cccnc12 (stereo partly shown) [compound 663] | 34% | 78% | – | – | – | – |
| CCOCC1CC2C3CCc4cc(O)ccc4C3CC[C@]2(C)C1=O (stereo partly shown) [compound 664] | 19% | 92% | – | 0.32 µM | – | – |
| CCC(O)C1CC2C3CCc4cc(O)ccc4C3CC[C@]2(C)C1=O (stereo partly shown) [compound 665] | -18% | 80% | – | – | – | – |
| C[C@]12CCC3c4ccc(O)cc4CCC3C1CC(CC(=O)NCc1ccco1)[C@@H]2O (stereo partly shown) [compound 667] | 14% | 35% | – | – | – | – |
| C[C@]12CCC3c4ccc(O)cc4CCC3C1CC(CC(=O)NCC1CCCO1)[C@@H]2O (stereo partly shown) [compound 668] | 25% | 63% | – | – | – | – |
| C[C@]12CCC3c4ccc(O)cc4CCC3C1CC(CC(=O)NCc1ccccn1)C2=O (stereo partly shown) [compound 669] | – | – | – | – | 7% | 82% |
| C[C@]12CCC3c4ccc(O)cc4CCC3C1CC(CC(=O)NCc1cccnc1)C2=O (stereo partly shown) [compound 670] | 26% | 95% | 0.033 µM | – | – | – |
| C[C@]12CCC3c4ccc(O)cc4CCC3C1CC(CC(=O)NCC1CCCO1)C2=O (stereo partly shown) [compound 671] | 21% | 91% | 0.38 µM | – | – | – |
| C[C@]12CCC3c4ccc(O)cc4CCC3C1CC(CC(=O)NCc1ccco1)C2=O (stereo partly shown) [compound 672] | – | – | – | – | 3% | 85% |
| C[C@]12CCC3c4ccc(O)cc4CCC3C1CC(C(=O)NCc1ccco1)[C@@H]2O (stereo partly shown) [compound 679] | -9% | 87% | – | – | – | – |
| CN(C)CCCNC(=O)CC1CC2C3CCc4cc(O)ccc4C3CC[C@]2(C)C1=O (stereo partly shown) [compound 688] | 13% | 36% | – | – | – | – |
| COCCNC(=O)CC1CC2C3CCc4cc(O)ccc4C3CC[C@]2(C)C1=O (stereo partly shown) [compound 689] | 8% | 53% | – | – | – | – |
| C[C@H](NC(=O)CC1CC2C3CCc4cc(O)ccc4C3CC[C@]2(C)C1=O)c1ccccc1 (stereo partly shown) [compound 690] | 10% | 83% | – | – | – | – |
| C[C@]12CCC3c4ccc(O)cc4CCC3C1CC(CC(=O)NCCc1ccccn1)C2=O (stereo partly shown) [compound 691] | 14% | 58% | – | – | – | – |
| COc1cc(/C=C2\CC3C4CCc5cc(OS(N)(=O)=O)ccc5C4CC[C@]3(C)C2=O)cc(OC)c1OC (stereo partly shown) [compound 692] | 17% | 4% | – | – | – | – |
| COc1cc(/C=C2\CC3C4CCc5cc(OS(N)(=O)=O)ccc5C4CC[C@]3(C)[C@H]2O)cc(OC)c1OC (stereo partly shown) [compound 693] | 10% | 13% | – | – | – | – |
| C[C@]12CCC3c4ccc(O)cc4C(=O)CC3C1Cc1c[nH]nc12 (stereo partly shown) [compound 737, 2-Hydroxy-6a-methyl-5,6,6a,8,10,10a,10b,11-octahydro-4bH-7,8-diazo-pentaleno[2,1-a]phenanthren-12-one] | -9% | 96% | 0.46 µM | – | – | – |
| CCN(C)C(=O)CC1CC2C3CCc4cc(O)ccc4C3CC[C@]2(C)C1=O (stereo partly shown) [compound 741] | 5% | 79% | – | – | – | – |
| CCN(CC)C(=O)CC1CC2C3CCc4cc(O)ccc4C3CC[C@]2(C)C1=O (stereo partly shown) [compound 742] | 2% | 82% | – | – | – | – |
| CC(C)NC(=O)CC1CC2C3CCc4cc(O)ccc4C3CC[C@]2(C)C1=O (stereo partly shown) [compound 743] | 6% | 75% | – | – | – | – |
| CCNC(=O)CC1CC2C3CCc4cc(O)ccc4C3CC[C@]2(C)C1=O (stereo partly shown) [compound 744] | 2% | 84% | – | – | – | – |

| Compound | inhibition at 10 µM (17β-HSD2; [1]) | inhibition at 10 µM (17β-HSD1; [2]) | IC50 (17β-HSD1; [3]) | IC50 (17β-HSD1) | inhibition at 10 µM (17β-HSD2; [4]) | inhibition at 10 µM (17β-HSD1; [5]) |
| --- | --- | --- | --- | --- | --- | --- |
| CNC(=O)CC1CC2C3CCc4cc(O)ccc4C3CC[C@]2(C)C1=O (stereo partly shown) [compound 745] | 3.5% | 90% | 1.5 µM | – | – | – |
| C[C@]12CCC3c4ccc(O)cc4CCC3C1CC(CC(=O)Nc1nccs1)C2=O (stereo partly shown) [compound 746] | 16% | 30% | – | – | – | – |
| CC(C)(C)/C=C1\CC2C3CCc4cc(O)ccc4C3CC[C@]2(C)C1=O (stereo partly shown) [compound 748] | 31% | 82% | – | – | – | – |
| CCO/C=C1/CC2C3CC(=O)c4cc(O)ccc4C3CC[C@]2(C)C1=O (stereo partly shown) [compound 749] | 8% | 85% | – | – | – | – |
| CCN(C)C(=O)CC1CC2C3CCc4cc(O)ccc4C3CC[C@]2(C)[C@H]1O (stereo partly shown) [compound 771] | 16% | 78% | – | – | – | – |
| CCN(CC)C(=O)CC1CC2C3CCc4cc(O)ccc4C3CC[C@]2(C)[C@H]1O (stereo partly shown) [compound 772] | 14% | 79% | – | – | – | – |
| CC(C)NC(=O)CC1CC2C3CCc4cc(O)ccc4C3CC[C@]2(C)[C@H]1O (stereo partly shown) [compound 773] | 11% | 67% | – | – | – | – |
| CCNC(=O)CC1CC2C3CCc4cc(O)ccc4C3CC[C@]2(C)[C@H]1O (stereo partly shown) [compound 774] | 13% | 76% | – | – | – | – |
| CNC(=O)CC1CC2C3CCc4cc(O)ccc4C3CC[C@]2(C)[C@H]1O (stereo partly shown) [compound 775] | 11% | 63% | – | – | – | – |
| C[C@]12CCC3c4ccc(O)cc4CCC3C1CC(C(=O)NCC1CCCO1)[C@@H]2O (stereo partly shown) [compound 779] | 11% | 82% | – | – | – | – |
| COC(=O)C1(CN2C(=O)c3ccccc3C2=O)CC2C3CCc4cc(O)ccc4C3CC[C@]2(C)C1=O (stereo partly shown) [compound 780] | 17% | 71% | – | – | – | – |
| CCOC(=O)c1[nH]nc2c1CC1C3CCc4cc(O)ccc4C3CC[C@]21C (stereo partly shown) [compound 782] | 7% | 94% | 1.85 µM | – | – | – |
| C[C@]12CCC3c4ccc(O)cc4CCC3C1Cc1c2n[nH]c1C(=O)O (stereo partly shown) [compound 783] | -6% | 32% | – | – | – | – |
| C[C@]12CCC3c4ccc(O)cc4C(=O)CC3C1C/C(=C/O)C2=O (stereo partly shown) [compound 784] | -7% | 97% | 0.7 µM | – | – | – |
| Cn1cc2c(n1)[C@@]1(C)CCC3c4ccc(O)cc4CCC3C1C2 (stereo partly shown) [compound 785] | – | – | 2.75 µM | – | 24% | 94% |
| Cn1ncc2c1[C@@]1(C)CCC3c4ccc(O)cc4CCC3C1C2 (stereo partly shown) [compound 786] | – | – | – | – | 32% | 43% |
| C[C@]12CCC3c4ccc(O)cc4CCC3C1CC(C(=O)NCc1cccnc1)[C@@H]2O (stereo partly shown) [compound 798] | -12% | 91% | – | 0.51 µM | – | – |
| CN1CCN(C(=O)C2CC3C4CCc5cc(O)ccc5C4CC[C@]3(C)[C@H]2O)CC1 (stereo partly shown) [compound 799] | -16% | 74% | – | – | – | – |
| CCN(C)C(=O)C1CC2C3CCc4cc(O)ccc4C3CC[C@]2(C)[C@H]1O (stereo partly shown) [compound 800] | -6% | 79% | – | – | – | – |
| CC(C)NC(=O)C1CC2C3CCc4cc(O)ccc4C3CC[C@]2(C)[C@H]1O (stereo partly shown) [compound 801] | – | – | – | – | -15% | 70% |
| Cn1cccc1CNC(=O)C1CC2C3CCc4cc(O)ccc4C3CC[C@]2(C)[C@H]1O (stereo partly shown) [compound 802] | -7% | 86% | – | – | – | – |
| Cc1cnc(CNC(=O)C2CC3C4CCc5cc(O)ccc5C4CC[C@]3(C)[C@H]2O)cn1 (stereo partly shown) [compound 803] | -18% | 85% | – | – | – | – |
| C[C@]12CCC3c4ccc(O)cc4CCC3C1Cc1c2n[nH]c1CO (stereo partly shown) [compound 804] | -1% | 94% | 0.95 µM | – | – | – |
| COC(=O)Cn1cc2c(n1)[C@@]1(C)CCC3c4ccc(O)cc4CCC3C1C2 (stereo partly shown) [compound 806] | 19% | 95% | 0.92 µM | – | – | – |
| COC(=O)Cn1ncc2c1[C@@]1(C)CCC3c4ccc(O)cc4CCC3C1C2 (stereo partly shown) [compound 807] | 30% | 79% | – | – | – | – |
